Marks after values point to notes of the source that are not given here. Ends that are not written are not given here.
What was measured:
[1] = Inhibition of weight gain of mice fed with high-fat feed; format: in vivo
Source text: Experimental Animals: 3-4 weeks old male mice and feed provided by the Laboratory Animal Center of Nanjing Medical University, license No.: SCXK (Su) 2011-0003. The animals were randomly caged, with unlimited drink and feed. Experimental drugs: polypeptide-verbascoside-nanogold particle derivative (adipose tissue-targeting), polypeptide-verbascoside derivative, polypeptide-nanogold derivative, and verbascoside-nanogold derivative as experimental groups, and physiological saline for negative control. 2) Raising 60 male mice of 6 weeks old in the clean environment of Experimental Animal Center of Nanjing Medical University, at a temperature of (21±2) ° C., a humidity of (35±2) %, an intermittent illumination for 12 hours, with unlimited drink and feed; wherein the drinking water is distilled water prepared by the experimental animal center; 3) After 2-3 days of adaptive feeding, randomly selecting 10 mice as a blank control group provided with regular feed, while providing the remaining 50 rice with high fat feed (cholesterol 1 wt. %, lard 20 wt. %, bile salt 0.2 wt. %, and regular feed 78.8 wt. %); measuring the body weight of the mice in the two groups every 2 weeks; analyzing the obtained body weight data with statistical methods, and the results are shown in FIG. 3, wherein *P<0.05, **P<0.01, and ***P<0.001 indicate body weight data of the experimental group compared with those of the blank control group fed with regular feed; 4) Randomly dividing the obese mice fed with high-fat feed into several groups, with each group of 10 mice; injecting (exemplified by intraperitoneal injection) physiological saline (0.03 mL of physiological saline per 30 g body weight), polypeptide-verbascoside derivative (15 mg of derivative per kg body weight, dissolved in DMSO), polypeptide-nanogold derivative (15 mg of derivative per kg body weight, dissolved in DMSO), verbascoside-nanogold derivative (15 mg of derivative per kg body weight, dissolved in DMSO), and polypeptide-verbascoside-nanogold particle derivative (15 mg of derivative per kg body weight, dissolved in DMSO) at 9:30 am every day, respectively.

[2] = tested on: visceral fat and subcutaneous fat of mice; experiment: Storage of visceral fat and subcutaneous fat of mice provided with high fat feed; format: in vivo
Procedure: 1) Providing an intraperitoneal administration to the high-fat-fed obese mice for 12 weeks according to the experimental procedure of Embodiment 3;
2) Fasting the mice of each group for 12 hours, and then anesthetizing with 3% pentobarbital sodium having a concentration of 45 mg/kg via intraperitoneal injection, and accurately weighing the mice;
3) Disinfecting routinely and performing laparotomy, rapidly extracting and weighing the adipose tissue around the kidney, adipose tissue around the mesentery, adipose tissue around the epididymis, and abdominal subcutaneous adipose tissue to obtain wet weights thereof (the abdominal subcutaneous adipose tissue range: abdomen below the rib arch and above the groin, both sides are bounded by the midaxillary line);
4) Calculating according to the following formula: wet weight of the abdominal adipose; total weight of the fat pad (g)=adipose tissue around the kidney+adipose tissue around the epididymis; body fat content=the total weight of the fat pad (g)/the total body weight of mice (g);

[3] = high fat feed mice, 15 mg/kg i.p. daily for 12 weeks, wet weight

**Q.** For “polypeptide-verbascoside: ester of adipose tissue-targeting polypeptide CKGGRAKDC (C-terminal acyl chloride) with verbascoside sodium phenolate, per Embodiment 1 (not fully specified (C-terminus); cysteine pairing not given here)”, which “Weight 6 weeks after administration” value ([1]; high fat feed mice, 15 mg/kg intraperitoneal injection every day, 6 weeks, n=10) is on record?
**A.** 30.6 ± 0.3 g

**Q.** What about the “Weight 12 weeks after administration” value ([1]; high fat feed mice, 15 mg/kg intraperitoneal injection every day, 12 weeks, n=10) of the same substance?
**A.** 35.5 ± 1.6 g

**Q.** And the “Initial Weight” value ([1]; high fat feed obese mice, before administration (baseline), n=10)?
**A.** 29.3 ± 0.5** g

**Q.** What about the “weight gains of mice” value ([1]; treatment for 6 weeks, compared with the model control group (#p<0.05)) of the same substance?
**A.** significantly inhibited

**Q.** What about the Body weight ([2]; Table 3, high fat feed mice, 12 weeks, after 12 h fasting) of the same substance?
**A.** 35.46 ± 1.57 g

**Q.** And the Body weight ([2]; Table 4, high fat feed mice, 12 weeks)?
**A.** 35.26 ± 1.77 g

**Q.** What about the SF-FAT ([2]; abdominal subcutaneous fat, high fat feed mice, 12 weeks) of the same substance?
**A.** 0.79 ± 0.12 g

**Q.** What about the “Total weight of the fat pad” value ([2]; adipose tissues around kidney + around epididymis, high fat feed mice, 12 weeks) of the same substance?
**A.** 2.27 ± 0.14 g

**Q.** And the “wet weight of the visceral adipose tissues of mice” value ([2]; after treatment, compared with the model control group (#p<0.05))?
**A.** significantly reduced

**Q.** And the “Total weight of visceral adipose tissues” value ([2]; high fat feed mice, 15 mg/kg i.p. daily for 12 weeks, Table 2)?
**A.** 5.72 ± 0.17 g

**Q.** And the “Weight of visceral adipose tissues: Around epididymis” value [2, 3]?
**A.** 1.21 ± 0.12 g

**Q.** What about the “Weight of visceral adipose tissues: Around kidney” value [2, 3] of the same substance?
**A.** 0.61 ± 0.17 g

**Q.** And the “Weight of visceral adipose tissues: Around omentum and mesentery” value [2, 3]?
**A.** 0.32 ± 0.05 g

**Q.** And the SF-FAT/body weight ([2]; high fat feed mice, 12 weeks)?
**A.** 2.27 ± 0.23

**Q.** What about the VF-FAT/SF-FAT ([2]; high fat feed mice, 12 weeks) of the same substance?
**A.** 2.63 ± 0.29

**Q.** And the Body fat index ([2]; total weight of the fat pad / total body weight, high fat feed mice, 12 weeks)?
**A.** 6.13 ± 0.41 %

**Q.** And the VF-FAT ([2]; visceral fat, Table 4, high fat feed mice, 12 weeks)?
**A.** 5.78 ± 0.17 g

— patent US10925974B2, “Adipose tissue-targeting polypeptide-verbascoside-nanogold particle derivative, preparation method and application thereof” (Affiliated Stomatological Hospital of Nanjing Medical …, priority 2018, dated 2021)
